Reference: ChEMBL document CHEMBL1122533 (J Med Chem, 1984)
Peptide text beside a SMILES is read from it. * marks the point of attachment. Cbz = O=C(OCc1ccccc1)*; Boc = CC(C)(C)OC(=O)*

Columns and labels:
[1] = system: Rattus norvegicus; assay: Compound was tested for the in vivo antagonist activity calculated from ED50 value, by estimating at 25 mL the mean blood volume in a 300-g rat and expressed as molarity; format: functional
[2] = system: Rattus norvegicus; assay: In vivo antagonistic effect on gastric acid secretion in the perfused rat stomach; format: functional

| Compound | Activity [1] | ED50 [2] [mg/kg] |
| --- | --- | --- |
| CSCC[C@H](NC(=O)[C@H](Cc1c[nH]c2ccccc12)NC(=O)CNC(=O)[C@H](Cc1ccc(O)cc1)NC(=O)OC(C)(C)C)C(=O)N[C@@H](CC(=O)O)C(N)=O (Boc-YGWMD-NH2) | 3.1e-05 | 2 |
| CSCC[C@H](NC(=O)[C@H](Cc1c[nH]c2ccccc12)NC(=O)CNC(=O)[C@H](Cc1ccc(O)cc1)NC(=O)[C@H](C)NC(=O)[C@H](CCC(=O)O)NC(=O)OCc1ccccc1)C(=O)N[C@@H](CC(=O)O)C(N)=O (Cbz-EAYGWMD-NH2) | 1.8e-05 | 1.5 |
| CSCC[C@H](NC(=O)[C@H](Cc1c[nH]c2ccccc12)NC(=O)OC(C)(C)C)C(=O)N[C@@H](CC(=O)O)C(N)=O (Boc-Trp-Met-Asp-NH2) | 0.00016 | 7.5 |
| CSCC[C@H](NC(=O)[C@H](Cc1c[nH]c2ccccc12)NC(=O)CNC(=O)OC(C)(C)C)C(=O)N[C@@H](CC(=O)O)C(N)=O (Boc-GWMD-NH2) | 0.0001 | 5 |
